Here are results for one molecule from ChEMBL document CHEMBL4145670, “A Bioactive Resveratrol Trimer from the Stem Bark of the Sri Lankan Endemic Plant Vateria copallifera” (J Nat Prod, 2018).

Activity calls are given as the source filed them. The rule behind the calls is not given here.

The inhibition is the share of the control response that was lost under treatment.

One assay deals with SK-MEL-5. Nature of the assay: cells. The conditions noted are these: Homo sapiens, SK-MEL-5, 48 h, read-out: GI.
The species entered for assay [1] is Homo sapiens. The settings on record: 147.2 uM.
Description: Inhibition of alpha-chymotrypsin (unknown origin) at 147.2 uM using N-succinyl-L-phenylalanine-p-nitroanilide as substrate pretreated for 25 mins followed by substrate addition relative to control
A further assay concerns HepG2. Nature of the assay: cells. The conditions noted are these: Homo sapiens, HepG2, 48 h, read-out: GI.
The next assay has as its system HeLa. Nature of the assay: cells. The settings on record: Homo sapiens, 48 h, read-out: GI.
In assay [2] the target is Cholinesterase (Homo sapiens) (UniProt P06276). The conditions noted are these: 14.7 uM.
Description: Inhibition of BChE (unknown origin) at 14.7 uM using butyrylthiocholine iodide as substrate pretreated for 15 mins followed by substrate addition and measured by DTNB reagent based assay
The next assay has as its system PC-12. Nature of the assay: cells. The conditions noted are these: Rattus norvegicus, PC-12, 3 h, read-out: Activity.
For another assay, the system named is MCF7. Put plainly: cells. The conditions noted are these: Homo sapiens, MCF7, 48 h, read-out: GI.
The species named for assay [3] is Homo sapiens. The conditions noted are these: 44.1 uM.
Description: Inhibition of elastase (unknown origin) at 44.1 uM using N-succinyl-Ala-Ala-Ala-p-nitroanilide as substrate pretreated for 25 mins followed by substrate addition relative to control
Assay [4] is filed under the species Homo sapiens. The conditions noted are these: 1.5 uM.
Description: Inhibition of GST (unknown origin) at 1.5 uM using CDNB as substrate relative to control
In another assay the test system is HCT-116. Nature of the assay: cells. The conditions noted are these: Homo sapiens, HCT-116, 48 h, read-out: GI.
The target in assay [5] is Cholinesterase (Homo sapiens) (UniProt P06276). The settings on record: 10 ug/ml.
Description: Inhibition of BChE (unknown origin) at 10 ug/ml using butyrylthiocholine iodide as substrate pretreated for 15 mins followed by substrate addition and measured by DTNB reagent based assay relative to control

Sequence of Cholinesterase (Homo sapiens) (P06276 whole entry): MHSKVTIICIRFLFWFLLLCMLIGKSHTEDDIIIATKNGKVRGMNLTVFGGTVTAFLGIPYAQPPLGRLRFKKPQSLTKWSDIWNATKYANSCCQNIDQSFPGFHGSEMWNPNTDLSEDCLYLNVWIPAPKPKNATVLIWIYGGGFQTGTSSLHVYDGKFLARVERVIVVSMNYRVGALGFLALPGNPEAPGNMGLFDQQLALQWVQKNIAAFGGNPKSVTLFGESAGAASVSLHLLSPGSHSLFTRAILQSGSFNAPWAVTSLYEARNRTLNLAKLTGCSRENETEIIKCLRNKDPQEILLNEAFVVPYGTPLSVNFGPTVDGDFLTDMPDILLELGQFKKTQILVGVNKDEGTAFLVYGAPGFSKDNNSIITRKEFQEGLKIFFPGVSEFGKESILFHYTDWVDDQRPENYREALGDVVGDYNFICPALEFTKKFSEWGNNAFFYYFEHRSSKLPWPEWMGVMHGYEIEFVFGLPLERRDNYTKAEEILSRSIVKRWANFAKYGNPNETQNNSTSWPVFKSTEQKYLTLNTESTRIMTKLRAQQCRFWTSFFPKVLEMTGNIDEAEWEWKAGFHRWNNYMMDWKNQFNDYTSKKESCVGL
Description for HCT-116: Growth inhibition of human HCT116 cells at 147.2 uM after 48 hrs by methylene blue staining based assay relative to control
Description for HeLa: Growth inhibition of human HeLa cells at 147.2 uM after 48 hrs by methylene blue staining based assay relative to control
Description for HepG2: Growth inhibition of human HepG2 cells at 147.2 uM after 48 hrs by methylene blue staining based assay relative to control
Description for MCF7: Growth inhibition of human MCF7 cells at 147.2 uM after 48 hrs by methylene blue staining based assay relative to control
Description for SK-MEL-5: Growth inhibition of human SK-MEL-5 cells at 147.2 uM after 48 hrs by methylene blue staining based assay relative to control

With `Oc1ccc(-c2oc3cc(O)c4c5c3c2-c2cc(O)cc(O)c2[C@H](c2ccc(O)cc2)[C@@H]5[C@H](c2ccc(O)cc2)[C@@H]4c2cc(O)cc(O)c2)cc1`, the inhibition of growth at 147.2 µM in the assay on SK-MEL-5, with HepG2, in the assay with HeLa, with MCF7 and in the assay with HCT-116 was below 50% in each case. The inhibition was 55.7% in the assay listed under Homo sapiens [1], 10.2% in the assay filed under Homo sapiens [3], 34.7% in the assay filed under Homo sapiens [4] and 19.7% in assay [5]. The inhibition entry in assay [2] was “inactive”. The viability at 1.5 µM in the assay on PC-12 was found to be 88.3%.
